From ChEMBL document CHEMBL1201862, “PubChem BioAssay data set” (2004)
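Step 1: Grow cells in 96-well plates. Step 2: Expose to compound for 48 hours at 5 concentrations. Step 3: Interpolate endpoints linearly; if unreached, use highest concentration. GI50 marks 50% less growth.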 Active and inactive are the calls of the source. Rule as the data show it: active = GI50 up to about 1.1 µM and inactive = higher.

Key:
Test in all cases: growth of human tumour cells (NCI), 48 h
UO-31 = test system: UO-31
MDA-MB-231 = test system: MDA-MB-231
SF-268 = test system: SF-268
NCI-H226 = test system: NCI-H226
MDA-N = test system: MDA-N
NCI-H23 = test system: NCI-H23
Malme-3M = test system: Malme-3M
DU-145 = test system: DU-145
U-251 = test system: U-251
MOLT-4 = test system: MOLT-4
SR = test system: SR
CCRF-CEM = test system: CCRF-CEM
HOP-92 = test system: HOP-92
SK-MEL-2 = test system: SK-MEL-2
A498 = test system: A498
M19-MEL = test system: M19-MEL
786-0 = test system: 786-0
TK-10 = test system: TK-10
MCF7 = test system: MCF7
HOP-62 = test system: HOP-62

Structure (SMILES)	GI50 (UO-31)	GI50 (MDA-MB-231)	GI50 (SF-268)	GI50 (NCI-H226)	GI50 (MDA-N)	GI50 (NCI-H23)	GI50 (Malme-3M)	GI50 (DU-145)	GI50 (U-251)	GI50 (MOLT-4)	GI50 (SR)	GI50 (CCRF-CEM)	GI50 (HOP-92)	GI50 (SK-MEL-2)	GI50 (A498)	GI50 (M19-MEL)	GI50 (786-0)	GI50 (TK-10)	GI50 (MCF7)	GI50 (HOP-62)
C[C@@H](CN1CC(=O)NC(=O)C1)N1CC(=O)NC(=O)C1 [DEXRAZOXANE]	354 µM (inactive)	168 µM (inactive)	378 µM (inactive)	101 µM (inactive)	241 µM (inactive)	125 µM (inactive)	165 µM (inactive)	255 µM (inactive)	228 µM (inactive)	15.8 µM (inactive)	93.1 µM (inactive)	21.4 µM (inactive)	196 µM (inactive)	246 µM (inactive)	221 µM (inactive)	311 µM (inactive)	266 µM (inactive)	222 µM (inactive)	24.4 µM (inactive)	66.8 µM (inactive)
COC(=O)C1CC(=O)O[C@H]1c1ccc(OC)c(OC)c1 (some centres undefined)	> 100 µM (inactive)		> 100 µM (inactive)	> 100 µM (inactive)		> 100 µM (inactive)	> 100 µM (inactive)		> 100 µM (inactive)	> 100 µM (inactive)	> 100 µM (inactive)	> 100 µM (inactive)	> 100 µM (inactive)	> 100 µM (inactive)	> 100 µM (inactive)	> 100 µM (inactive)	> 100 µM (inactive)	> 100 µM (inactive)		> 100 µM (inactive)
O=C(COc1ccccc1)NS(=O)(=O)c1ccccc1	> 100 µM (inactive)		> 100 µM (inactive)	> 100 µM (inactive)		> 100 µM (inactive)	> 100 µM (inactive)		> 100 µM (inactive)	> 100 µM (inactive)	> 100 µM (inactive)	> 100 µM (inactive)	> 100 µM (inactive)	> 100 µM (inactive)	> 100 µM (inactive)	> 100 µM (inactive)	> 100 µM (inactive)	> 100 µM (inactive)		> 100 µM (inactive)
CC1CC(C)CC(C)C(O)/C(C#N)=C/C=C/CC(C2CCCC2C(=O)O)OC(=O)CC(O)C(C)C1 (centres undefined)	0.012 µM (active)	< 0.0109 µM (active)	0.0133 µM (active)	0.0158 µM (active)	< 0.0112 µM (active)		0.0286 µM (active)	0.111 µM (active)	0.0115 µM (active)	0.022 µM (active)	< 0.0116 µM (active)	0.0118 µM (active)	< 0.01 µM (active)	< 0.01 µM (active)	0.0105 µM (active)	0.0202 µM (active)	< 0.0126 µM (active)	0.0301 µM (active)	0.0102 µM (active)	0.0148 µM (active)
O=S(=O)(/C=C/c1ccc(Cl)cc1Cl)Cc1ccccc1CS(=O)(=O)/C=C/c1ccc(Cl)cc1Cl	> 100 µM (inactive)		40.5 µM (inactive)	> 100 µM (inactive)		> 100 µM (inactive)			> 100 µM (inactive)	88.7 µM (inactive)	> 100 µM (inactive)	9.27 µM (inactive)	35.8 µM (inactive)	> 100 µM (inactive)	33.5 µM (inactive)	20.9 µM (inactive)	> 100 µM (inactive)	> 100 µM (inactive)		> 100 µM (inactive)
COC(=O)C12OCC34C(CC5C(C)C6=CC(=O)OC6=CC5(C)C3C(O)C1O)OC(=O)C(O)C24 (centres undefined)	16.1 µM (inactive)		0.504 µM (active)	0.293 µM (active)		0.238 µM (active)	0.159 µM (active)		0.233 µM (active)	0.153 µM (active)	< 0.01 µM (active)		0.231 µM (active)	0.446 µM (active)	0.544 µM (active)	0.192 µM (active)	0.594 µM (active)	1.42 µM (inactive)		0.78 µM (active)
Cc1c(C(=O)CC(=O)C(=O)Nc2cc(Cl)ccc2Cl)[n+]([O-])c2ccccc2[n+]1[O-]	> 100 µM (inactive)		33.4 µM (inactive)	> 100 µM (inactive)		21.5 µM (inactive)	43.6 µM (inactive)		34.8 µM (inactive)	26.6 µM (inactive)	28.4 µM (inactive)	73.8 µM (inactive)	> 100 µM (inactive)	37.9 µM (inactive)	> 100 µM (inactive)	25 µM (inactive)	61.5 µM (inactive)	> 100 µM (inactive)		> 100 µM (inactive)
CCCCCCC1=NOC(C(c2cc[nH]c2)N(C)[C@H](C(=O)OC)C(C)C)C1 (some centres undefined)	61.7 µM (inactive)		> 100 µM (inactive)	51.1 µM (inactive)		47.8 µM (inactive)	70.1 µM (inactive)		49.5 µM (inactive)	19.4 µM (inactive)	23.6 µM (inactive)	16.7 µM (inactive)	51.4 µM (inactive)	25.8 µM (inactive)	> 100 µM (inactive)	32 µM (inactive)	58.9 µM (inactive)	35.4 µM (inactive)		> 100 µM (inactive)
Nc1c(S(=O)(=O)c2ccccc2)c2nc3ccccc3nc2n2c1nc1ccccc12	> 100 µM (inactive)		> 45.3 µM (inactive)	37.5 µM (inactive)		19.4 µM (inactive)	19.5 µM (inactive)		24.7 µM (inactive)	> 29.4 µM (inactive)	> 71.6 µM (inactive)	> 39.2 µM (inactive)	> 100 µM (inactive)	> 55.3 µM (inactive)	> 100 µM (inactive)	29.8 µM (inactive)	8.09 µM (inactive)	> 100 µM (inactive)		19.4 µM (inactive)
